{"source": "patent US6767900B2", "about": "“Phosphonate nucleotide compound” (Mitsubishi Pharma Corporation, priority 2000, dated 2004)", "key": {"Hepatitis B Virus (HBV)": {"tested_on": "Hepatitis B Virus (HBV)", "test": "Inhibitory effect against growth of hepatitis B virus (HBV-DNA synthesis in HB611 cells, Southern blotting)", "assay_type": "cell-based", "conditions": "read-out: 50% inhibition concentration against HBV-DNA synthesis; HB611 cells (recombinant human hepatoma cells producing HBV); test compound 0.005 to 100 μM from day 8; DNA collected day 17"}, "HB611 cells": {"tested_on": "HB611 cells", "test": "Cytotoxicity to HB611 cells", "assay_type": "cell-based, human", "method": "The inhibitory effect of the compound of the present invention against the growth of an HBV was measured by a known method (K. Ueda, et al., Virology, 169, 213-216 (1989)). 2×10^4 of HB611 cells (recombinant human hepatoma cells producing HBV) were cultured at 37° C. in Dulbecco ME medium containing 10% fetal bovine serum, streptomycin (100 μg/ml), penicillin (100IU/ml) and Genetisin (trade name, antibiotic by LifeTechnologies) (0.2 mg/ml). At the second day and the fifth day of culturing, the medium was replaced by a fresh medium, and then at the eighth day, the eleventh day and the fourteenth day of culturing, the medium was replaced with a medium containing 0.005 to 100 μM (final concentration) of the test compound, and at the seventeenth day of culturing, DNA of the cells were collected. […] Moreover, a concentration of the compounds required to kill 50% of HB611 cells was determined.\nEach compound number in the table corresponds to the compound number in Table 1. For reference, the results of the evaluation of the compounds described in EP785208 are also shown."}}}
{"molecule": "Nc1nc(Sc2ccc(O)cc2)c2ncn(CCOCP(=O)(OCC(F)(F)F)OCC(F)(F)F)c2n1", "note": "[Compound No. 3, 2-amino-9-[2-(phosphonomethoxy)ethyl]-6-(4-hydroxyphenylthio)purine bis(2,2,2-trifluoroethyl) ester]", "values": [{"measurement": "IC50", "setting": "Hepatitis B Virus (HBV)", "result": 50, "unit": "nM"}, {"measurement": "Cytotoxic concentration required to kill 50% of HB611 cells", "setting": "HB611 cells", "result": ">1,000 μM"}]}
